The values below come from patent publication US10538495B2, “Modulators of indoleamine 2,3-dioxygenase” (GLAXOSMITHKLINE INTELLECTUAL PROPERTY DEVELOPMENT LIMITED, priority 2016, dated 2020).

Test [1] concerns the target T1, indoleamine 2,3-dioxygenase (IDO1) (Homo sapiens, UniProt P14902). In words: PBMC IDOi assay (kynurenine by mass spectrometry). In kind it is cell-based. The following applies: IFN-γ and LPS stimulated human PBMC, 2 days, kynurenine detected by mass spectrometry; read-out: PBMC pIC50 (converted). The procedure: Brief descriptions of the cellular assays are provided following the table.
Compounds of the present invention were tested via high-throughput cellular assays utilizing detection of kynurenine via mass spectrometry and cytotoxicity as end-points. For the mass spectrometry and cytotoxicity assays, human peripheral blood mononuclear cells (PBMC) (PB003F; AllCells®, Alameda, Calif.) were stimulated with human interferon-γ (IFN-γ) (Sigma-Aldrich Corporation, St. Louis, Mo.) and lipopolysaccharide from Salmonella minnesota (LPS) (Invivogen, San Diego, Calif.) to induce the expression of indoleamine 2,3-dioxygenase (IDO1). Compounds with IDO1 inhibitory properties decreased the amount of kynurenine produced by the cells via the tryptophan catabolic pathway. Cellular toxicity due to the effect of compound treatment was measured using CellTiter-Glo® reagent (CTG) (Promega Corporation, Madison, Wis.), which is based on luminescent detection of ATP, an indicator of metabolically active cells.
In preparation for the assays, test compounds were serially diluted 3-fold in DMSO from a typical top concentration of 5 mM and plated at 0.5 μL in 384-well, polystyrene, clear bottom, tissue culture treated plates with lids (Greiner Bio-One, Kremsmünster, Austria) to generate 11-point dose response curves. Low control wells (0% kynurenine or 100% cytotoxicity) contained either 0.5 μL of DMSO in the presence of unstimulated (−IFN-γ/−LPS) PBMCs for the mass spectrometry assay or 0.5 μL of DMSO in the absence of cells for the cytotoxicity assay, and high control wells (100% kynurenine or 0% cytotoxicity) contained 0.5 μL of DMSO in the presence of stimulated (+IFN-γ/+LPS) PBMCs for both the mass spectrometry and cytotoxicity assays.
Frozen stocks of PBMCs were washed and recovered in RPMI 1640 medium (Thermo Fisher Scientific, Inc., Waltham, Mass.) supplemented with 10% v/v heat-inactivated fetal bovine serum (FBS) (Thermo Fisher Scientific, Inc., Waltham, Mass.), and 1× penicillin-streptomycin antibiotic solution (Thermo Fisher Scientific, Inc., Waltham, Mass.). The cells were diluted to 1,000,000 cells/mL in the supplemented RPMI 1640 medium. 50 μL of either the cell suspension, for the mass spectrometry assay, or medium alone, for the cytotoxicity assay, were added to the low control wells, on the previously prepared 384-well compound plates, resulting in 50,000 cells/well or 0 cells/well respectively. IFN-γ and LPS were added to the remaining cell suspension at final concentrations of 100 ng/ml and 50 ng/ml respectively, and 50 μL of the stimulated cells were added to all remaining wells on the 384-well compound plates. The plates, with lids, were then placed in a 37° C., 5% CO2 humidified incubator for 2 days.
Following incubation, the 384-well plates were removed from the incubator and allowed to equilibrate to room temperature for 30 minutes. For the cytotoxicity assay, CellTiter-Glo® was prepared according to the manufacturer's instructions, and 40 μL were added to each plate well. After a twenty minute incubation at room temperature, luminescence was read on an EnVision® Multilabel Reader (PerkinElmer Inc., Waltham, Mass.). For the mass spectrometry assay, 10 μL of supernatant from each well of the compound-treated plates were added to 40 μL of acetonitrile, containing 10 μM of an internal standard for normalization, in 384-well, polypropylene, V-bottom plates (Greiner Bio-One, Kremsmünster, Austria) to extract the organic analytes. Following centrifugation at 2000 rpm for 10 minutes, 10 μL from each well of the acetonitrile extraction plates were added to 90 μL of sterile, distilled H2O in 384-well, polypropylene, V-bottom plates for analysis of kynurenine and the internal standard on the RapidFire 300 (Agilent Technologies, Santa Clara, Calif.) and 4000 QTRAP MS (SCIEX, Framingham, Mass.). […]

Test [2] addresses T1, indoleamine 2,3-dioxygenase (IDO1). In words: HeLa IDOi assay (kynurenine by mass spectrometry). It is filed as cell-based. On the set-up: human epithelial HeLa cells (CCL-2; host or cells: HeLa cells stimulated with human IFN-γ. Conditions: IFN-γ stimulated HeLa cells, 2 days, kynurenine detected by mass spectrometry; read-out: HeLa pIC50 (converted). In a few lines:
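HeLa cells (5,000/well) stimulated with 10 nM IFN-γ and exposed to 11-point 3-fold compound dilutions (DMSO stock top typically 5 mM) for 2 days at 37 °C. Supernatant kynurenine quantified by RapidFire MS as ratio to internal standard; cytotoxicity by CellTiter-Glo ATP luminescence. Normalized to unstimulated/stimulated controls; XC50 from four-parameter fit.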

In test [3] the test system is PAN02 pancreatic cells. The following applies: orally dosed, cited from earlier work.
Test [4] deals with conversion of T cells into CD4+FoxP3+ Tregs. The following applies: co-culture of DCs and naïve CD4+CD25− T cells; cited from earlier work.

The structures appear in SMILES notation. Read-outs that look alike come from different tables or passages of the source.

T1 sequence (P14902 whole entry): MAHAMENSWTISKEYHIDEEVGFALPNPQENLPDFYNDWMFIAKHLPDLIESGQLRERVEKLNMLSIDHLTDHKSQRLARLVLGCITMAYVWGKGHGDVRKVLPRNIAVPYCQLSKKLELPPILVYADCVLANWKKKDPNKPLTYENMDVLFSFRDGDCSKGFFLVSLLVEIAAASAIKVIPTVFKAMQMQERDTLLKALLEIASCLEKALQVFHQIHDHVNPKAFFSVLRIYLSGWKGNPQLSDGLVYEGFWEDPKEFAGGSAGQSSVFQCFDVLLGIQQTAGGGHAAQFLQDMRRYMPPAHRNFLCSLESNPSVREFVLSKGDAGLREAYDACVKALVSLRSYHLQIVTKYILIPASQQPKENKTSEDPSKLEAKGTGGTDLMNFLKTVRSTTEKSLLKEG

Consider `Cc1ccc(CC(=O)Nc2cc(-c3ccccc3-c3nnn[nH]3)cnc2SC(C)(C)C)c(C)c1` [Example 66, N-(5-(2-(1H-tetrazol-5-yl)phenyl)-2-(tert-butylthio)pyridin-3-yl)-2-(2,4-dimethylphenyl)acetamide], for which the IC50 was 7.94 nM in test [1] and 10 nM in test [2].
For `CC(C)(C)Sc1ncc(-c2ccccc2-c2nnn[nH]2)cc1NC(=O)Cc1ccccc1C(F)(F)F` [Example 67, N-(5-(2-(1H-tetrazol-5-yl)phenyl)-2-(tert-butylthio)pyridin-3-yl)-2-(2-(trifluoromethyl)phenyl)acetamide], the IC50 in test [1] is 12.6 nM; in test [2], 100 nM.
`NS(=O)(=O)NCCNc1nonc1C(=NO)Nc1ccc(F)c(Br)c1` [INCB204360]: the “inhibition of tumor growth” value in test [3] (PAN02 syngeneic model, immunocompetent mice) is “significant dose-dependent inhibition of tumor growth”; in test [3] (same tumor implanted in immune-deficient mice), “without effect”. In addition, the “conversion of T cells into CD4+FoxP3+ Tregs” value in test [4] was “blocked the conversion”.
